Experimental findings from patent EP1333824B1, “TREATMENT OF SEXUAL DYSFUNCTION WITH BOMBESIN RECEPTOR ANTAGONISTS” (Warner-Lambert Company LLC, priority 2000, dated 2002) are described below.

In general, IC50 refers to the midpoint of a concentration-inhibition curve. High values mean a need for much substance, low ones inhibition by little substance.

T1 sequence (P30550 whole entry): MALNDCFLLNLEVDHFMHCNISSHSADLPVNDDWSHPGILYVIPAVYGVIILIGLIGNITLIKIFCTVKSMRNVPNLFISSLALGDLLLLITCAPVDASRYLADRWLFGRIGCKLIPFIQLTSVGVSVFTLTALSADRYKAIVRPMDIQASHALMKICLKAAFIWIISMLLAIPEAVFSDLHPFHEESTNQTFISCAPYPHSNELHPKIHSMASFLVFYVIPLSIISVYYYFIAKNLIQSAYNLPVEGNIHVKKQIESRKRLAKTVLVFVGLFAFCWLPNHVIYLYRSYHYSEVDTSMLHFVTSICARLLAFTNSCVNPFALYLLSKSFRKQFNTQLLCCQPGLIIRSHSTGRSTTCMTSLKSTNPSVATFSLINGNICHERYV

One test has as its target T1, human GRP receptor (BB2) (Homo sapiens, UniProt P30550).
T1 construct: expressed in transfected cells
As to the kind of experiment: BB2 binding assay ([125I][Tyr4]bombesin, CHO-K1 cell membranes). To be noted: Table 3; N-acyl derivatives. As to the method:
In the following experiments, measurement of BB1 and BB2 binding was as follows. […] The final pellet was resuspended in assay buffer to a final cell concentration of 1.5 × 10^5/mL. […] Nonspecific binding was defined by 1µM bombesin. […] Radioactivity bound was determined using a gamma counter.
All competition data was analysed using nonlinear regression utilizing iterative curve-plotting procedures in Prism® (GraphPad Software Inc., San Diego, USA).
Take `C[C@@](Cc1c[nH]c2ccccc12)(NC(=O)c1ccoc1)C(=O)NCC1(c2ccccn2)CCCCC1` [Example 59, Furan-3-carboxylic acid {(S)-2-(1H-indol-3-yl)-1-methyl-1-[(1-pyridin-2-yl-cyclohexylmethyl)-carbamoyl]-ethyl}-amide]: the IC50 was > 10 µM.
For `CN(C)c1ccccc1C(=O)N[C@@](C)(Cc1c[nH]c2ccccc12)C(=O)NCC1(c2ccccn2)CCCCC1` [Example 48, C-Dimethylamino-N-{(S)-2-(1H-indol-3-yl)-1-methyl-1-[(1-pyridin-2-yl-cyclohexyl-methyl)-carbamoyl]-ethyl}-benzamide], the IC50 is > 10 µM.
On to `C[C@@](Cc1c[nH]c2ccccc12)(NC(=O)c1ccccn1)C(=O)NCC1(c2ccccn2)CCCCC1` [Example 57, Pyridine-2-carboxylic acid {(S)-2-(1H-indol-3-yl)-1-methyl-1-[(1-pyridin-2-yl-cyclohexylmethyl)-carbamoyl]-ethyl}-amide], for which the 50% inhibitory concentration (IC50) was > 10 µM.

Still in this test, the particulars now being: Table 5; N-terminal urethane derivatives.
`C[C@@](Cc1c[nH]c2ccccc12)(NC(=O)OCc1ccc2ncccc2c1)C(=O)NCC1(c2ccccn2)CCCCC1` [Example 110, {(S)-2-(1H-Indol-3-yl)-1-methyl-1-[(1-pyridin-2-yl-cyclohexylmethyl)-carbamoyl]-ethyl}-carbamic acid quinolin-6-ylmethyl ester]: the half-inhibitory concentration (IC50) is > 10 µM.

Still in this test, the particulars now being: Table 7; N-terminal sulfonamide derivatives.
On to `C[C@@](Cc1c[nH]c2ccccc12)(NS(=O)(=O)c1ccc(Cl)cc1[N+](=O)[O-])C(=O)NCC1(c2ccccn2)CCCCC1` [Example 149, (S)-2-(4-Chloro-2-nitro-benzenesulfonylamino)-3-(1H-indol-3-yl)-2-methyl-N-(1-pyridin-2-yl-cyclohexylmethyl)-propionamide], for which the IC50 was > 10 µM.
Same read-out and setting: to `Cc1noc(C)c1S(=O)(=O)N[C@@](C)(Cc1c[nH]c2ccccc12)C(=O)NCC1(c2ccccn2)CCCCC1` [Example 136, (S)-2-(3,5-Dimethyl-isoxazole-4-sulfonylamino)-3-(1H-indol-3-yl)-2-methyl-N-(1-pyridin-2-yl-cyclohexylmethyl)-propionamide] belongs > 10 µM; to `C[C@@](Cc1c[nH]c2ccccc12)(NS(=O)(=O)c1cnc(Cl)c(Br)c1)C(=O)NCC1(c2ccccn2)CCCCC1` [Example 161, (S)-2-(5-Bromo-6-chloro-pyridine-3-sulfonylamino)-3-(1H-indol-3-yl)-2-methyl-N-(1-pyridin-2-yl-cyclohexylmethyl)-propionamide], > 10 µM.
Still for that read-out and setting: in the case of `C[C@@](Cc1c[nH]c2ccccc12)(NS(=O)(=O)c1cccc2nonc12)C(=O)NCC1(c2ccccn2)CCCCC1` [Example 139, (S)-2-(Benzo[1,2,5]oxadiazole-4-sulfonylamino)-3-(1H-indol-3-yl)-2-methyl-N-(1-pyridin-2-yl-cyclohexylmethyl)-propionamide] it was > 10 µM.
Still for that read-out and setting: to `Cn1cnc(S(=O)(=O)N[C@@](C)(Cc2c[nH]c3ccccc23)C(=O)NCC2(c3ccccn3)CCCCC2)c1` [Example 138, (S)-3-(1H-Indol-3-yl)-2-methyl-2-(1-methyl-1H-imidazole-4-sulfonylamino)-N-(1-pyridin-2-yl-cyclohexylmethyl)-propionamide] belongs > 10 µM.
On to `C[C@@](Cc1c[nH]c2ccccc12)(NS(=O)(=O)c1c(Cl)cc(Cl)cc1Cl)C(=O)NCC1(c2ccccn2)CCCCC1` [Example 148, (S)-3-(1H-Indol-3-yl)-2-methyl-N-(1-pyridin-2-yl-cyclohexylmethyl)-2-(2,4,6-trichloro-benzenesulfonylamino)-propionamide], for which the “BB2 IC50” value is “Ia”.
For `C[C@@](Cc1c[nH]c2ccccc12)(NS(=O)(=O)c1ccc(Cl)c(C(F)(F)F)c1)C(=O)NCC1(c2ccccn2)CCCCC1` [Example 166, (S)-2-(Chloro-trifluoromethyl-benzenesulfonylamino)-3-(1H-indol-3-yl)-2-methyl-N-(1-pyridin-2-yl-cyclohexylmethyl)-propionamide], the concentration for half-maximal inhibition (IC50) is > 10 µM.
On to `C[C@@](Cc1c[nH]c2ccccc12)(NS(=O)(=O)c1cc([N+](=O)[O-])ccc1Cl)C(=O)NCC1(c2ccccn2)CCCCC1` [Example 147, (S)-2-(2-Chloro-5-nitro-benzenesulfonylamino)-3-(1H-indol-3-yl)-2-methyl-N-(1-pyridin-2-yl-cyclohexylmethyl)-propionamide], for which the “BB2 IC50” value is given as “Ia”.
Regarding `C[C@@](Cc1c[nH]c2ccccc12)(NS(=O)(=O)c1ccccc1C#N)C(=O)NCC1(c2ccccn2)CCCCC1` [Example 134, (S)-2-(2-Cyano-benzenesulfonylamino)-3-(1H-indol-3-yl)-2-methyl-N-(1-pyridin-2-yl-cyclohexylmethyl)-propionamide], the IC50 is > 10 µM.
On the same count and under the same terms, to `C[C@@](Cc1c[nH]c2ccccc12)(NS(=O)(=O)c1ccc(-c2ccccn2)s1)C(=O)NCC1(c2ccccn2)CCCCC1` [Example 160, (S)-3-(1H-Indol-3-yl)-2-methyl-N-(1-pyridin-2-yl-cyclohexylmethyl)-2-(5-pyridin-2-yl-thiophene-2-sulfonylamino)-propionamide] belongs > 10 µM.
For the compound `C[C@@](Cc1c[nH]c2ccccc12)(NS(=O)(=O)c1cccs1)C(=O)NCC1(c2ccccn2)CCCCC1` [Example 119, (S)-3-(1H-Indol-3-yl)-2-methyl-N-(1-pyridin-2-yl-cyclohexylmethyl)-2-(thiophene-2-sulfonylamino)-propionamide], the “BB2 IC50” value is “Ia”.
With `COc1ccc(S(=O)(=O)N[C@@](C)(Cc2c[nH]c3ccccc23)C(=O)NCC2(c3ccccn3)CCCCC2)cc1OC` [Example 132, (S)-2-(3,4-Dimethoxy-benzenesulfonylamino)-3-(1H-indol-3-yl)-2-methyl-N-(1-pyridin-2-yl-cyclohexylmethyl)-propionamide], the IC50 was > 10 µM.
Same read-out and setting: in the case of `Cc1cc(S(=O)(=O)N[C@@](C)(Cc2c[nH]c3ccccc23)C(=O)NCC2(c3ccccn3)CCCCC2)c(Cl)cc1Cl` [Example 165, (S)-2-(2,4-Dichloro-5-methyl-benzenesulfonylamino)-3-(1H-indol-3-yl)-2-methyl-N-(1-pyridin-2-yl-cyclohexylmethyl)-propionamide] it was > 10 µM; in that of `C[C@@](Cc1c[nH]c2ccccc12)(NS(=O)(=O)c1cccc2cccc([N+](=O)[O-])c12)C(=O)NCC1(c2ccccn2)CCCCC1` [Example 146, (S)-3-(1H-Indol-3-yl)-2-methyl-2-(8-nitro-naphthalene-1-sulfonylamino)-N-(1-pyridin-2-yl-cyclohexylmethyl)-propionamide], > 10 µM; in that of `C[C@@](Cc1c[nH]c2ccccc12)(NS(=O)(=O)c1ccc(-c2ccon2)s1)C(=O)NCC1(c2ccccn2)CCCCC1` [Example 141, (S)-3-(1H-Indol-3-yl)-2-(5-isoxazol-3-yl-thiophene-2-sulfonylamino)-2-methyl-N-(1-pyridin-2-yl-cyclohexylmethyl)-propionamide], > 10 µM.
